Test results as given in paper PMC8883573, “New Insights Into the Function of Flavohemoglobin in Mycobacterium tuberculosis: Role as a NADPH-Dependent Disulfide Reductase and D-Lactate-Dependent Mycothione Reductase” (Frontiers in Cellular and Infection Microbiology, 2022).

Target: T1, MtbFHb (Mycobacterium tuberculosis, UniProt Q7ARS9)
T1 construct: gene Rv0385
T1 sequence (Q7ARS9 entry or part of it): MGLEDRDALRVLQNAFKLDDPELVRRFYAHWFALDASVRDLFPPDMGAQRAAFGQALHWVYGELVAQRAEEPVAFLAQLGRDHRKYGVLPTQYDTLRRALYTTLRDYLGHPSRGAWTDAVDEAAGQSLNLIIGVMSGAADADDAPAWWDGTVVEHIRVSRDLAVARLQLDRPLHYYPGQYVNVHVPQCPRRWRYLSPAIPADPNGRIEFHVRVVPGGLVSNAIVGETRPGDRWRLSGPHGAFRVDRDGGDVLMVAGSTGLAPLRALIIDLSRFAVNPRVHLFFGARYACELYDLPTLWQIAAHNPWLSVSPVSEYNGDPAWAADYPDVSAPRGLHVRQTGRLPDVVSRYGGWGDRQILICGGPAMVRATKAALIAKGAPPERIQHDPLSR

Question: With C[C@@H](O)C(=O)O [D-lactate] as the compound, how does the “far-UV circular dichroism (conformational change)” value read?
Answer: The value was “These results confirmed a conformational change in MtbFHb during its interaction with D-lactate”.
